# Results published in PubChem BioAssay AID816 (SRMLSC, 2007).
# Active and inactive are the calls of the source. The rule behind the calls is not given here.
# Tested on: S. cerevisiae GAL1 promoter reporter activation counterscreen
# Experiment: yeast Gal1p promoter activation – S. cerevisiae, artefact control for yeast lifespan extension project (AID 816);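 note: yeast growth read after 24 h of incubation with compounds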
row,Structure (SMILES),EC50
1,CC(=C1C(=O)c2ccccc2C1=O)N1CCN(C/C=C/c2ccccc2)CC1,> 40 µM (inactive)
2,Cn1c(=O)c(=O)n(C)c2cc(S(=O)(=O)N3CCN(Cc4ccccc4)CC3)ccc21,> 40 µM (inactive)
3,N#Cc1c(-c2ccccc2)c(-c2ccccc2)nn(CC(=O)NNC(=O)Nc2ccccc2)c1=O,> 40 µM (inactive)
4,O=C(c1ccc(F)cc1)C(CN1CCOCC1)c1ccccc1 (centres undefined),> 40 µM (inactive)
5,COc1ccc(/C=C/C(=O)C2C(=O)C=C(C)OC2=O)cc1O (centres undefined),> 40 µM (inactive)
6,CC1(C)Oc2ccccc2OC1(O)c1ccc2ccccc2n1 (centres undefined),> 40 µM (inactive)
7,CN1CCC2(CC1)C(C#N)=C(N)NC(S)=C2C#N,> 40 µM (inactive)
8,O=Cc1ccccc1OS(=O)(=O)c1ccccc1,> 40 µM (inactive)
9,CC(=Nc1ccc2c(c1)nc(CO)n2C)C1=C(O)CC(C)(C)CC1=O,> 40 µM (inactive)
10,CCn1c(=O)c2c(O)cc(=O)oc2c2ccccc21,> 40 µM (inactive)
11,CC(C)Cn1c(=O)c(C(=O)Nc2cnccn2)c(O)c2ccccc21,> 40 µM (inactive)
12,Cc1ccc(C(C2=C(O)CC(C)(C)CC2=O)C2C(=O)CC(C)(C)CC2=O)o1 (centres undefined),> 40 µM (inactive)
13,Cc1cc2c(c(=O)n1CCc1ccccc1)C(c1ccco1)C(C#N)=C(N)O2 (centres undefined),> 40 µM (inactive)
14,CCOc1ccc(NCc2nc3ccccc3n2CCOc2ccccc2)cc1,> 40 µM (inactive)
15,O=C1Nc2cc(Cl)c(Cl)cc2N(O)N1c1cc(Cl)cc(Cl)c1,> 40 µM (inactive)
16,CC(C)C(C(=O)O)N1C(=O)/C(=C/c2cccn2C)SC1=S (centres undefined),> 40 µM (inactive)
17,Cc1cc(C2C(C#N)=C(N)Oc3n[nH]c(C)c32)c(C)s1 (centres undefined),> 40 µM (inactive)
18,COc1ccc(OC)c(NC(=S)N2CCN(C/C=C/c3ccccc3)CC2)c1,> 40 µM (inactive)
19,COc1ccccc1CNC(=O)C(CCSC)NS(=O)(=O)c1ccc2c(c1)oc(=O)n2C (centres undefined),> 40 µM (inactive)
20,O=C(NCc1ccco1)c1cc(C(=O)C2CCCCC2)c[nH]1,> 40 µM (inactive)
21,CCCCn1c(NS(=O)(=O)c2ccc(C)cc2)c(C(=O)OCC)c2nc3ccccc3nc21,> 40 µM (inactive)
22,CC(=O)Nc1ccc(C(=O)CSc2nnc(-c3ccc(O)cc3)n2CC2CCCO2)cc1 (centres undefined),> 40 µM (inactive)
23,O=C(Oc1cc(=O)n2ccccc2n1)c1ccccc1,> 40 µM (inactive)
24,COc1cccc(C2CC3C(=O)C=CC2N3Cc2ccccc2)c1 (centres undefined),> 40 µM (inactive)
25,CCOc1ccc(C2=NNC(c3cccs3)=Nc3ccc(OCC)cc32)cc1,> 40 µM (inactive)

row,Structure (SMILES),EC50
1,CC(C)c1ccc(C2=C(O)c3ccccc3C(=O)C2=O)cc1,> 40 µM (inactive)
2,CN(C)C=C1C(=O)N(C2CCCCC2)C(=O)N(C2CCCCC2)C1=O,> 40 µM (inactive)
3,O=c1c(Cl)c(NCCCO)cnn1-c1nc2ccccc2[nH]1,> 40 µM (inactive)
4,CCCCn1c(=O)c2c(O)cc(=O)oc2c2ccccc21,> 40 µM (inactive)
5,CC(C)n1c(-c2ccccc2F)n[nH]c1=S,> 40 µM (inactive)
6,CCCC(=O)Nc1ccccc1Sc1ncnc2scc(-c3ccccc3)c12,> 40 µM (inactive)
7,CC(=O)c1c(C)[nH]c(C(=O)OC2CCCCC2=O)c1C (centres undefined),> 40 µM (inactive)
8,Cc1ccc(N(C(=O)CS(=O)CC(=O)Nc2ccc(F)cc2)C(C(=O)NC2CCCCC2)c2ccco2)cc1 (centres undefined),> 40 µM (inactive)
9,O=C(O)c1c[nH]c(=S)n1-c1ccc(F)cc1,> 40 µM (inactive)
10,CCN(CCO)C(=O)C12CCC(C)(C(=O)C1)C2(C)C (centres undefined),> 40 µM (inactive)
11,Cc1cccc(N2C(=O)/C(=C\c3ccc(OC(F)F)cc3)c3ccccc3C2=O)c1,> 40 µM (inactive)
12,O=C(Nc1cccnc1)c1c(O)c2cccc3c2n(c1=O)CC3,> 40 µM (inactive)
13,CC(C)c1nnc(NC(=O)c2c(O)c3cccc4c3n(c2=O)CCC4)s1,> 40 µM (inactive)
14,Cc1oc2c(c(=O)c1C)C(=O)CC(c1ccccc1)C2 (centres undefined),> 40 µM (inactive)
15,COC(=O)C1=C(C(=O)OC)C(c2cc(Br)ccc2O)c2sc(=O)[nH]c2S1 (centres undefined),> 40 µM (inactive)
16,O=c1cc(O)c2c(=O)n(-c3ccccc3)c3c(c2o1)CCCCC3,> 40 µM (inactive)
17,Cc1nn(C(C)(C)C)c(OC(=O)c2ccc(Br)o2)c1Sc1ccccc1,> 40 µM (inactive)
18,O=CN(/C=C1\Sc2ccccc2C1=O)Cc1ccccc1,> 40 µM (inactive)
19,O=C1C(Cl)=C(Nc2ccccc2O)C(=O)N1CCc1ccccc1,> 40 µM (inactive)
20,CC(=O)C(C(C)=O)c1c(Cl)c(O)c(O)c2c(C(=O)c3ccccc3)coc12,> 40 µM (inactive)
21,CCCc1[nH]nc2c1C(c1ccc(Br)s1)C(C#N)=C(N)O2 (centres undefined),> 40 µM (inactive)
22,COc1cc(/C=C/C(=O)c2c(O)cc(C)oc2=O)cc(OC)c1O,> 40 µM (inactive)
23,O=C(Oc1ccc([N+](=O)[O-])cc1)c1ccc2ccccc2n1,> 40 µM (inactive)
24,CC[n+]1c(/C=C2\C=C(C)CC(C)(C)C2)sc2ccccc21,> 40 µM (inactive)
25,Cc1cc(C(=O)CN2C(=O)NC(C)(CC(C)C)C2=O)c(C)n1-c1ccc2c(c1)OCO2 (centres undefined),> 40 µM (inactive)

row,Structure (SMILES),EC50
1,CC(=O)N1CCN(CCN=CC2=C(O)CC(c3cccs3)CC2=O)CC1 (centres undefined),> 40 µM (inactive)
2,CC(C)=C1C(=O)NN(c2ccc(C)c(Cl)c2)C1=O,> 40 µM (inactive)
3,O=c1cc(-c2c(F)c(F)c(F)c(F)c2F)oc2c(F)c(F)c(F)c(F)c12,> 40 µM (inactive)
4,Cc1cccc(NC(=O)c2c(O)c3cccc4c3n(c2=O)CCC4)n1,> 40 µM (inactive)
5,Cc1ncc(C23CC4CC(CC(C4)C2)C3)[nH]1,> 40 µM (inactive)
6,Cc1ccc(N(C)C(=O)Oc2ccc(C(=O)c3ccc(Cl)cc3)cc2)cc1,> 40 µM (inactive)
7,CC1=NN(Cc2ccccc2)C(=O)C1C(c1ccccc1)C(C#N)C#N (centres undefined),> 40 µM (inactive)
8,CCCCCCCCn1c(=O)c(C(=O)OCC)c(O)c2ccccc21,> 40 µM (inactive)
9,CCCC(=O)Nc1ccc(C(=O)NNC(=S)NC(=O)c2cccs2)cc1,> 40 µM (inactive)
10,O=C1CC(c2ccc(F)cc2)CC(O)=C1C=NCCN1CCN(C(=O)Nc2ccccc2)CC1 (centres undefined),> 40 µM (inactive)
11,Cc1cccc(N2C(=O)C(Oc3ccc(Cl)cc3Cl)C2C=O)c1C (centres undefined),> 40 µM (inactive)
12,CCCCCCC1C(C#N)=C(N)OC2=C1C(=O)CC(C)(C)C2 (centres undefined),> 40 µM (inactive)
13,O=C(NC(=S)NNC(=O)c1ccc(Cl)cc1Cl)c1cccnc1,> 40 µM (inactive)
14,CCSc1nnc(NC(=O)C2(C)Cc3ccccc3C(=O)O2)s1 (centres undefined),> 40 µM (inactive)
15,CCSc1nnc(NC(=O)CSc2nc(C)cc(C)n2)s1,> 40 µM (inactive)
16,CC1CCCCC1NC(=O)/C(C#N)=C/c1ccccc1F (centres undefined),> 40 µM (inactive)
17,CCCCC1C(=O)CC[C@H]2[C@@H]1CC(=O)[C@@H]2C/C=C\CCCC(=O)O (some centres undefined),> 40 µM (inactive)
18,COc1ccc(CNC(=O)c2c(O)c3cccc4c3n(c2=O)CCC4)cc1,> 40 µM (inactive)
19,C[C@]12CC[C@@H](O)C[C@@H]1CC[C@@H]1[C@@H]2CC[C@]2(C)[C@@H](O)CC[C@@H]12,> 40 µM (inactive)
20,CC(C)(C)C(=O)Cn1c(=N)n(Cc2ccccc2)c2ccccc21,> 40 µM (inactive)
21,O=C(NC(=S)NNS(=O)(=O)c1ccccc1)c1ccc([N+](=O)[O-])cc1,> 40 µM (inactive)
22,CC1(C)CC(=O)C2=C(C1)OC1=C(C(=O)CC(C)(C)C1)C2c1ccc(O)cc1O,> 40 µM (inactive)
23,COc1cc(OC)cc(-c2nc3ccccc3c(=O)n2OC(=O)c2ccc(Br)cc2)c1,> 40 µM (inactive)
24,COc1ccc(CCN2C(=O)C(O)=C(C(=O)c3ccco3)C2c2cccs2)cc1OC (centres undefined),> 40 µM (inactive)
25,N#CSCC(=O)N1c2ccccc2CCc2ccccc21,> 40 µM (inactive)

row,Structure (SMILES),EC50
1,C[C@]12CC[C@@H]3c4ccc(O)cc4CC[C@H]3[C@@H]1CC[C@@H]2OC(=O)CCC(=O)O,> 40 µM (inactive)
2,CN1OC(c2ccccc2)=C(CO)C1c1ccccc1 (centres undefined),> 40 µM (inactive)
3,CCOC(=O)C1=C(N)OC2=C(C(=O)CCC2)C1c1sccc1C (centres undefined),> 40 µM (inactive)
4,CC(C)n1c(=O)c2c(O)cc(=O)oc2c2ccccc21,> 40 µM (inactive)
5,COc1cc(C(C[N+](=O)[O-])c2c(-c3ccccc3)cc3ccccn23)cc(OC)c1OC (centres undefined),> 40 µM (inactive)
6,CCCCC(=O)Nc1ccc(C(=O)NNC(=S)NC(=O)c2cccs2)cc1,> 40 µM (inactive)
7,O=C1c2ccccc2C(=O)N1c1ncc(Cc2ccc(Cl)cc2)s1,> 40 µM (inactive)
8,CCn1c(/N=C/c2ccccc2NS(=O)(=O)c2ccc(C)cc2)nc2ccccc21,> 40 µM (inactive)
9,O=Cc1cc2ccccc2nc1SCc1ccc(Cl)cc1,> 40 µM (inactive)
10,CNC(=O)/C(C#N)=C/c1c(F)cccc1Cl,> 40 µM (inactive)
11,C=C(CC)C(=O)c1ccc(OCC(=O)O)c(Cl)c1Cl,> 40 µM (inactive)
12,CN1CCN(C(=S)Nc2cc([N+](=O)[O-])ccc2Cl)CC1,> 40 µM (inactive)
13,CC1=C(C#N)C2C(/C1=N/O)C2(C)C (centres undefined),> 40 µM (inactive)
14,CSc1ccc(S(=O)(=O)NCc2ccc(Cl)cc2Cl)cc1,> 40 µM (inactive)
15,CC(=O)Oc1ccccc1N1C(=O)c2ccc(C(=O)O)cc2C1=O,> 40 µM (inactive)
16,C=C(C(=O)c1ccccc1)C(C)CC(=O)c1ccccc1 (centres undefined),> 40 µM (inactive)
17,CCc1nc(SCC(=O)c2ccc3c(c2)OCCO3)c2ccccc2n1,> 40 µM (inactive)
18,CN(C)C1(c2nnnn2CCOC(=O)Nc2ccc(Cl)cc2)CCCCC1,> 40 µM (inactive)
19,CCC1C/C(=C\c2cccnc2)C(=O)/C(=C/c2cccnc2)C1 (centres undefined),> 40 µM (inactive)
20,Cc1ccc(/C=C2/C(=O)NC(=O)N(CCc3ccc(F)cc3)C2=O)o1,> 40 µM (inactive)
21,O=c1c2c3c(sc2ncn1/N=C/c1ccc([N+](=O)[O-])o1)CCCC3,> 40 µM (inactive)
22,COc1ccc(C(=O)C(CN2CCOCC2)c2ccccc2)cc1 (centres undefined),> 40 µM (inactive)
23,COC(=O)c1sc(S(=O)(=O)Nc2ccc(Br)cc2)c(C(=O)OC)c1C,> 40 µM (inactive)
24,CNC(=S)NC1CC2CCCC(C1)N2Cc1ccco1 (centres undefined),> 40 µM (inactive)
